Experimental data reported in the supplement of paper PMC10307832.

Legend:
Assay in all cases: relative viability (nuclei count vs DMSO), 5 days (fraction); higher = more cells survive
AZ505 + Luminespib = compound: C1CCC(CC1)N(CCNCCC2=C3C(=C(C=C2)O)NC(=O)CO3)C(=O)CCNCCC4=CC(=C(C=C4)Cl)Cl [AZ505] + CCNC(=O)c1noc(-c2cc(C(C)C)c(O)cc2O)c1-c1ccc(CN2CCOCC2)cc1 [Luminespib] (partner 0.01 µM)
Method in brief: (§1)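 Lung cancer cell lines were pin-tool dosed in 1536-well plates on the day after seeding, with either a lone drug or a fixed anchor-drug dose plus five library-drug doses (not always all listed) in √10 steps. Nuclei were counted on 4× images after 5 days. Relative viability is the ratio of treated-well to vehicle-well nuclei counts, with each value a median of duplicate plates.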

AZ505 + Phenformin = compound: C1CCC(CC1)N(CCNCCC2=C3C(=C(C=C2)O)NC(=O)CO3)C(=O)CCNCCC4=CC(=C(C=C4)Cl)Cl [AZ505] + N=C(N)NC(=N)NCCc1ccccc1 [Phenformin] (partner 250 µM)
Method in brief: as §1

Dactolisib + Luminespib = compound: Cn1c(=O)n(-c2ccc(C(C)(C)C#N)cc2)c2c3cc(-c4cnc5ccccc5c4)ccc3ncc21 [Dactolisib] + CCNC(=O)c1noc(-c2cc(C(C)C)c(O)cc2O)c1-c1ccc(CN2CCOCC2)cc1 [Luminespib] (partner 0.01 µM)
Method in brief: as §1

Dactolisib + Phenformin = compound: Cn1c(=O)n(-c2ccc(C(C)(C)C#N)cc2)c2c3cc(-c4cnc5ccccc5c4)ccc3ncc21 [Dactolisib] + N=C(N)NC(=N)NCCc1ccccc1 [Phenformin] (partner 250 µM)
Method in brief: as §1

UMC-11 showed a relative viability (AZ505 + Luminespib; first compound 0.08 µM) of 1.05, a relative viability (AZ505 + Luminespib; first compound 0.253 µM) of 1.04 and a relative viability (AZ505 + Luminespib; first compound 0.8 µM) of 0.996. For the same cell line, the relative viability (AZ505 + Luminespib; first compound 2.53 µM) was 1.01, the relative viability (AZ505 + Luminespib; first compound 8 µM) was 1.03 and the relative viability (AZ505 + Phenformin; first compound 0.08 µM) was 0.305. For the same cell line, the relative viability (AZ505 + Phenformin; first compound 0.253 µM) was 0.323, the relative viability (AZ505 + Phenformin; first compound 0.8 µM) was 0.328 and the relative viability (AZ505 + Phenformin; first compound 2.53 µM) was 0.328. It also gave a relative viability (AZ505 + Phenformin; first compound 8 µM) of 0.325, a relative viability (Dactolisib + Luminespib; first compound 0.002 µM) of 1.1 and a relative viability (Dactolisib + Luminespib; first compound 0.006325 µM) of 0.781. For the same cell line, the relative viability (Dactolisib + Luminespib; first compound 0.02 µM) was 0.737, the relative viability (Dactolisib + Luminespib; first compound 0.06325 µM) was 0.261 and the relative viability (Dactolisib + Luminespib; first compound 0.2 µM) was 0.224. It also gave a relative viability (Dactolisib + Phenformin; first compound 0.002 µM) of 0.326, a relative viability (Dactolisib + Phenformin; first compound 0.006325 µM) of 0.326 and a relative viability (Dactolisib + Phenformin; first compound 0.02 µM) of 0.315. For the same cell line, the relative viability (Dactolisib + Phenformin; first compound 0.06325 µM) was 0.218 and the relative viability (Dactolisib + Phenformin; first compound 0.2 µM) was 0.22.
